Drawing on patent US20210122757A1, “SPIROCYCLIC COMPOUNDS AS MODULATORS OF INDOLEAMINE 2,3-DIOXYGENASE” (PHENEX DISCOVERY VERWALTUNGS-GMBH, priority 2018, published 2021), this text covers IC50 for 27 molecules.

Molecules are shown by their SMILES.

The assay deals with T1, Indoleamine 2,3-dioxygenase (Homo sapiens, UniProt P14902).
T1 construct: endogenous in cells; host or cells: SKOV-3 (ATCC HTB-77), stimulated with 50 ng/ml interferon gamma
T1 sequence (P14902 whole entry): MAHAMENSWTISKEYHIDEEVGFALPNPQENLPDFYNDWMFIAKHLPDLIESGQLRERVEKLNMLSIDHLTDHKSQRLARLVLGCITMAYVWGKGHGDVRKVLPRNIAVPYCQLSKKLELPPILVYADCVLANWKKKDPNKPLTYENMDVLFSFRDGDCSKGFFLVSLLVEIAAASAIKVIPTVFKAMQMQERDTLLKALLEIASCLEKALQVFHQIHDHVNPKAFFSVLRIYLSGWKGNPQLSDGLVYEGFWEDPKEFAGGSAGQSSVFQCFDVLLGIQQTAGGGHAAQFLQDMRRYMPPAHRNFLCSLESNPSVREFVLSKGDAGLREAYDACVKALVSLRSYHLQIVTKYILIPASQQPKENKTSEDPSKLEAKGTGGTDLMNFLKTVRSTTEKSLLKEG
As to the kind of experiment: SKOV-3 Cellular Indoleamine 2,3-dioxygenase Assay. To be noted: SKOV-3 cells, 50 ng/ml Interferon gamma, 100 μM L-Tryptophan, 24 hours, N-Formylkynurenin fluorescence detection; read-out: cell based activity (IC50). How it is done:
SKOV-3 Cellular Indoleamine 2,3-dioxygenase Assay
SKOV-3 cells were obtained from the American Type Culture Collection (ATCC® HTB-77™) and maintained in McCoy's medium (Pan Biotech) supplemented with 10% fetal bovine serum and 1% Penicillin/Streptomycin. Cells were kept at 37° C. in a humidified incubator with 5% CO2. For assay preparation, cells were seeded at a density of 2*10^5/ml into black clear bottom 96 well plates in 100 μl medium/well supplemented with 50 ng/ml Interferon gamma (eBioscience, Thermo Fisher Scientific). After cells fully adhered to the plate, dilution series of compounds were added in medium containing additional L-Tryptophan to a final L-Tryptophan concentration of 100 μM. The cells were incubated for 24 hours. Detection of produced N-Formylkynurenin was performed by addition of 3-Methylpiperidine to a final concentration of 200 mM. The plates were sealed and heated to 65° C. for 20 minutes in a water bath. After cooling the fluorescence of each well was recorded with a Victor™X4 (PerkinElmer) plate reader at an emission wavelength of 535 nm and excitation at 405 nm (Tomek et al.; Anal Bioanal Chem (2013) 405:2515-2524, Tomek et al.; Biochim Biophys Acta. 2015 September; 1850(9):1772-80).
On to `O=C(C[C@H]1CC[C@@]2(CCc3ccccc32)CC1)Nc1ccc(Cl)cc1` (single isomer, unassigned) [Example 1b, N-(4-chlorophenyl)-2-(2′,3′-dihydrospiro[cyclohexane-1,1′-inden]-4-yl)acetamide], for which the IC50 is not below 0.05 µM.

`O=C(C[C@H]1CC[C@@]2(CCc3ccccc32)CC1)Nc1ccc(Cl)cc1` (single isomer, unassigned) [Example 1c, N-(4-chlorophenyl)-2-(2′,3′-dihydrospiro[cyclohexane-1,1′-inden]-4-yl)acetamide]: the IC50 was less than 0.05 µM.

For `CC(C(=O)Nc1ccc(Cl)cc1)[C@H]1CC[C@@]2(CCc3ccccc32)CC1` (single isomer, unassigned) [Example 2a, N-(4-chlorophenyl)-2-(2′,3′-dihydrospiro[cyclohexane-1,1′-inden]-4-yl)propanamide], the IC50 was less than 0.05 µM.

Take `CC(C(=O)Nc1ccc(Cl)cc1)[C@H]1CC[C@@]2(CCc3ccccc32)CC1` (single isomer, unassigned) [Example 2b, N-(4-chlorophenyl)-2-(2′,3′-dihydrospiro[cyclohexane-1,1′-inden]-4-yl)propanamide]: the IC50 is less than 0.05 µM.

Consider `CC(C(=O)Nc1ccc(Cl)cc1)C1CCC2(CC1)COc1ncc(C(F)(F)F)cc12` (single isomer, unassigned) [Example 4b, N-(4-chlorophenyl)-2-(5′-(trifluoromethyl)-2′H-spiro[cyclohexane-1,3′-furo[2,3-b]pyridin]-4-yl)propanamide], for which the concentration for half-maximal inhibition (IC50) is not below 0.05 µM.

Regarding `CC(C(=O)Nc1ccc(Cl)cc1)C1CCC2(CC1)COc1ncc(C(F)(F)F)cc12` (single isomer, unassigned) [Example 4c, N-(4-chlorophenyl)-2-(5′-(trifluoromethyl)-2′H-spiro[cyclohexane-1,3′-furo[2,3-b]pyridin]-4-yl)propanamide], the IC50 is not below 0.05 µM.

Consider `CC(C(=O)Nc1ccc(Cl)cc1)C1CCC2(CC1)COc1ncc(C(F)(F)F)cc12` (single isomer, unassigned) [Example 4d, N-(4-chlorophenyl)-2-(5′-(trifluoromethyl)-2′H-spiro[cyclohexane-1,3′-furo[2,3-b]pyridin]-4-yl)propanamide], for which the IC50 was not below 0.05 µM.

Consider `CC(C(=O)Nc1ccc(Cl)cc1)C1CCC2(CC1)COc1ncc(C(F)(F)F)cc12` (single isomer, unassigned) [Example 4e, N-(4-chlorophenyl)-2-(5′-(trifluoromethyl)-2′H-spiro[cyclohexane-1,3′-furo[2,3-b]pyridin]-4-yl)propanamide], for which the IC50 was less than 0.05 µM.

`CC(C(=O)Nc1ccc(Cl)cc1)C1CCC2(CC1)COc1nc(C(F)(F)F)ccc12` (single isomer, unassigned) [Example 5b, N-(4-chlorophenyl)-2-(6′-(trifluoromethyl)-2′H-spiro[cyclohexane-1,3′-furo[2,3-b]pyridin]-4-yl)propanamide]: the IC50 was less than 0.05 µM.

For `CC(C(=O)Nc1ccc(Cl)cc1)C1CCC2(CC1)COc1nc(C(F)(F)F)ccc12` (single isomer, unassigned) [Example 5c, N-(4-chlorophenyl)-2-(6′-(trifluoromethyl)-2′H-spiro[cyclohexane-1,3′-furo[2,3-b]pyridin]-4-yl)propanamide], the IC50 was less than 0.05 µM.

As for `CC(C(=O)Nc1ccc(Cl)cc1)C1CCC2(CC1)COc1nc(C(F)(F)F)ccc12` (single isomer, unassigned) [Example 5d, N-(4-chlorophenyl)-2-(6′-(trifluoromethyl)-2′H-spiro[cyclohexane-1,3′-furo[2,3-b]pyridin]-4-yl)propanamide], the IC50 was not below 0.05 µM.

Consider `CC(C(=O)Nc1ccc(Cl)cc1)C1CCC2(CC1)COc1nc(C(F)(F)F)ccc12` (single isomer, unassigned) [Example 5e, N-(4-chlorophenyl)-2-(6′-(trifluoromethyl)-2′H-spiro[cyclohexane-1,3′-furo[2,3-b]pyridin]-4-yl)propanamide], for which the IC50 is less than 0.05 µM.

`CC(C(=O)Nc1ccc(Cl)cc1)C1CCC2(CC1)c1ccc(C(F)(F)F)cc1C(=O)N2C` (single isomer, unassigned) [Example 6b, N-(4-Chlorophenyl)-2-(2′-methyl-3′-oxo-5′-(trifluoromethyl)spiro[cyclohexane-1,1′-isoindolin]-4-yl)propanamide]: the IC50 was not below 0.05 µM.

Take `CC(C(=O)Nc1ccc(Cl)cc1)C1CCC2(CC1)c1ccc(C(F)(F)F)cc1C(=O)N2C` (single isomer, unassigned) [Example 6c, N-(4-Chlorophenyl)-2-(2′-methyl-3′-oxo-5′-(trifluoromethyl)spiro[cyclohexane-1,1′-isoindolin]-4-yl)propanamide]: the IC50 is less than 0.05 µM.

For `CC(C(=O)Nc1ccc(Cl)cc1)C1CCC2(CC1)c1ccc(C(F)(F)F)cc1C(=O)N2C` (single isomer, unassigned) [Example 6d, N-(4-Chlorophenyl)-2-(2′-methyl-3′-oxo-5′-(trifluoromethyl)spiro[cyclohexane-1,1′-isoindolin]-4-yl)propanamide], the IC50 was not below 0.05 µM.

For `CC(C(=O)Nc1ccc(Cl)cc1)C1CCC2(CC1)c1ccc(C(F)(F)F)cc1C(=O)N2C` (single isomer, unassigned) [Example 6e, N-(4-Chlorophenyl)-2-(2′-methyl-3′-oxo-5′-(trifluoromethyl)spiro[cyclohexane-1,1′-isoindolin]-4-yl)propanamide], the half-inhibitory concentration (IC50) is not below 0.05 µM.

`CC(C(=O)Nc1ccc(Cl)cc1F)C1CCC2(CC1)COc1cc(C(F)(F)F)ccc12` (single isomer, unassigned) [Example 7b, N-(4-Chloro-2-fluorophenyl)-2-(6-(trifluoromethyl)-2H-spiro[benzofuran-3,1′-cyclohexan]-4′-yl)propanamide]: the IC50 is less than 0.05 µM.

`CC(C(=O)Nc1ccc(Cl)cc1F)C1CCC2(CC1)COc1cc(C(F)(F)F)ccc12` (single isomer, unassigned) [Example 7c, N-(4-Chloro-2-fluorophenyl)-2-(6-(trifluoromethyl)-2H-spiro[benzofuran-3,1′-cyclohexan]-4′-yl)propanamide]: the IC50 is less than 0.05 µM.

`CC(C(=O)Nc1ccc(Cl)cc1F)C1CCC2(CC1)COc1cc(C(F)(F)F)ccc12` (single isomer, unassigned) [Example 7d, N-(4-Chloro-2-fluorophenyl)-2-(6-(trifluoromethyl)-2H-spiro[benzofuran-3,1′-cyclohexan]-4′-yl)propanamide]: the IC50 was less than 0.05 µM.

Regarding `CC(C(=O)Nc1ccc(Cl)cc1F)C1CCC2(CC1)COc1cc(C(F)(F)F)ccc12` (single isomer, unassigned) [Example 7e, N-(4-Chloro-2-fluorophenyl)-2-(6-(trifluoromethyl)-2H-spiro[benzofuran-3,1′-cyclohexan]-4′-yl)propanamide], the IC50 is not below 0.05 µM.

Turning to `Cc1ccc(NC(=O)C(C)C2CCC3(CC2)COc2cc(C(F)(F)F)ccc23)cc1` (single isomer, unassigned) [Example 8b, N-(p-Tolyl)-2-(6-(trifluoromethyl)-2H-spiro[benzofuran-3,1′-cyclohexan]-4′-yl)propanamide], the IC50 was less than 0.05 µM.

Regarding `Cc1ccc(NC(=O)C(C)C2CCC3(CC2)COc2cc(C(F)(F)F)ccc23)cc1` (single isomer, unassigned) [Example 8c, N-(p-Tolyl)-2-(6-(trifluoromethyl)-2H-spiro[benzofuran-3,1′-cyclohexan]-4′-yl)propanamide], the IC50 was less than 0.05 µM.

In the case of `Cc1ccc(NC(=O)C(C)C2CCC3(CC2)COc2cc(C(F)(F)F)ccc23)cc1` (single isomer, unassigned) [Example 8d, N-(p-Tolyl)-2-(6-(trifluoromethyl)-2H-spiro[benzofuran-3,1′-cyclohexan]-4′-yl)propanamide], the IC50 is less than 0.05 µM.

Turning to `Cc1ccc(NC(=O)C(C)C2CCC3(CC2)COc2cc(C(F)(F)F)ccc23)cc1` (single isomer, unassigned) [Example 8e, N-(p-Tolyl)-2-(6-(trifluoromethyl)-2H-spiro[benzofuran-3,1′-cyclohexan]-4′-yl)propanamide], the IC50 was not below 0.05 µM.

For `CC1CCC(NC(=O)C(C)C2CCC3(CC2)COc2cc(C(F)(F)F)ccc23)CC1` (single isomer, unassigned) [Example 9b, N-((1r,4r)-4-Methylcyclohexyl)-2-(6-(trifluoromethyl)-2H-spiro[benzofuran-3,1′-cyclohexan]-4′-yl)propanamide], the IC50 is not below 0.05 µM.

For `CC1CCC(NC(=O)C(C)C2CCC3(CC2)COc2cc(C(F)(F)F)ccc23)CC1` (single isomer, unassigned) [Example 9c, N-((1r,4r)-4-Methylcyclohexyl)-2-(6-(trifluoromethyl)-2H-spiro[benzofuran-3,1′-cyclohexan]-4′-yl)propanamide], the IC50 is not below 0.05 µM.

As to `CC1CCC(NC(=O)C(C)C2CCC3(CC2)COc2cc(C(F)(F)F)ccc23)CC1` (single isomer, unassigned) [Example 9d, N-((1r,4r)-4-Methylcyclohexyl)-2-(6-(trifluoromethyl)-2H-spiro[benzofuran-3,1′-cyclohexan]-4′-yl)propanamide], the 50% inhibitory concentration (IC50) was not below 0.05 µM.

The term IC50 denotes the midpoint of a concentration-inhibition curve.
